# Data published in PMC5999399 (Journal of medicinal chemistry, 2017).
# Legend:
# [1] = target: T1, human MC3R (hMC3R) (Homo sapiens, UniProt P41968); settings: ref previously published data, cited from earlier work; for hMC3R % max effect: cAMP at 10 μM, in relation to MT-II
# [2] = target: T2, human MC5R (hMC5R) (Homo sapiens, UniProt P33032); settings: ref previously published data, cited from earlier work; for hMC5R % BE: [125I]NDP-α-MSH displacement at 10 μM
# [3] = target: T3, human MC1R (hMC1R) (Homo sapiens, UniProt Q01726); settings: cAMP at 10 μM, in relation to MT-II; ref previously published data; cited from earlier work
# [4] = target: T2, human MC5R (hMC5R); settings: cAMP at 10 μM, in relation to MT-II; ref previously published data; cited from earlier work
# [5] = target: T3, human MC1R (hMC1R); settings: [125I]NDP-α-MSH displacement at 10 μM; ref previously published data; cited from earlier work
# [6] = target: T1, human MC3R (hMC3R); settings: [125I]NDP-α-MSH displacement at 10 μM; ref previously published data; cited from earlier work
# [7] = target: T4, human MC4R (hMC4R) (Homo sapiens, UniProt P32245); settings: cAMP at 10 μM, in relation to MT-II; ref previously published data; cited from earlier work
# [8] = target: T3, human MC1R (hMC1R); experiment: Adenylate cyclase; type: cell-based; settings: EC50 ratio
# [9] = target: T4, human MC4R (hMC4R); settings: [125I]NDP-α-MSH displacement at 10 μM; ref previously published data; cited from earlier work
# T4 sequence (P32245 whole entry): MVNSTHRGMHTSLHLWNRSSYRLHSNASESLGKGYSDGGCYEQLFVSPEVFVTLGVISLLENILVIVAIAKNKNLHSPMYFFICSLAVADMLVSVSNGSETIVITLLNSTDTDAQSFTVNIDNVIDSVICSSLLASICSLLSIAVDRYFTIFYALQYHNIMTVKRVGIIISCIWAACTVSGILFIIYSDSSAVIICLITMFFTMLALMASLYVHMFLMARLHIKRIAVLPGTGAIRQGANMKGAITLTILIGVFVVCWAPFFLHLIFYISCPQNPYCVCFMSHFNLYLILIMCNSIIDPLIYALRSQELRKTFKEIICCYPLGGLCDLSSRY
# T2 sequence (P33032 whole entry): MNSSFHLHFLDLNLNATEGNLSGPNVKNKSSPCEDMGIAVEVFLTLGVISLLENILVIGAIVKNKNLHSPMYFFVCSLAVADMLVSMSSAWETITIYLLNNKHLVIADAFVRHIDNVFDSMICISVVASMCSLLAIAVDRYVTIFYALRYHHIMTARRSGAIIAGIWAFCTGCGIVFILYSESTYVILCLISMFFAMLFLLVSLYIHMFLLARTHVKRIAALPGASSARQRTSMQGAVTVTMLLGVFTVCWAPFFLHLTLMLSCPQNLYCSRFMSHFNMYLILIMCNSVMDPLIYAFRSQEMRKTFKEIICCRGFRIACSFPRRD
# T1 sequence (P41968 whole entry): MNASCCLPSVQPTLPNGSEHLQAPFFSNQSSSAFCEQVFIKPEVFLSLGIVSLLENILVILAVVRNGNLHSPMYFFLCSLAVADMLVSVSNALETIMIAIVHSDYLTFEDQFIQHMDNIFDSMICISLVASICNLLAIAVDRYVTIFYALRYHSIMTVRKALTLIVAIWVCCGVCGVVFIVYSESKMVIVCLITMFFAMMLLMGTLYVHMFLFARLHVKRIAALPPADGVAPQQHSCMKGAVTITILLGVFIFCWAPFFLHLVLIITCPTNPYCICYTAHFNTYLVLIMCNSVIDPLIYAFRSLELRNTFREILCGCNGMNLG
# T3 sequence (Q01726 whole entry): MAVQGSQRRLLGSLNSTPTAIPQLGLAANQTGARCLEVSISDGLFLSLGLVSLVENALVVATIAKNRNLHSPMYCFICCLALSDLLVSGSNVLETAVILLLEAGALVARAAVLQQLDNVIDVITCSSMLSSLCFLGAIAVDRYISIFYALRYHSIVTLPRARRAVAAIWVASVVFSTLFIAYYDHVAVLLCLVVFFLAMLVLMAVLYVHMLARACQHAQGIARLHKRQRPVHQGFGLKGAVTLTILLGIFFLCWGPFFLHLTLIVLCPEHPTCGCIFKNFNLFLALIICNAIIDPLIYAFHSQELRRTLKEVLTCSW
increase in potency to hMC1R compared to γ-MSH [8] [fold],Substance,hMC3R % max effect [1] [%],hMC5R % BE [2] [%],hMC1R % max effect [3] [%],hMC5R % max effect [4] [%],hMC1R % BE [5] [%],hMC3R % BE [6] [%],"EC50 ([1]; read-out: hMC3R EC50, cAMP accumulation) [nM]","IC50 ([2]; read-out: hMC5R IC50, 50% specific binding) [nM]",hMC4R % max effect [7] [%],hMC4R % BE [9] [%]
–,Ac-Ser-Tyr-Ser-Met-Glu-His-Phe-Arg-Trp-Gly-Lys-Pro-Val-NH2 [Compound 14],100,100,100,100,100,100,–,–,–,–
–,H-Tyr-Val-Nle-Gly-His-D-Nal(2)-Arg-D-Trp-Asp-Arg-Phe-Gly-NH2 [Compound 1],6,100,–,6,–,100,300 ± 6,3.5 ± 0.5,–,–
3,H-Tyr^1-Val^2-Met^3-Gly^4-His^5-Phe^6-Arg^7-Trp^8–Asp^9-Arg^10-Phe^11-Gly^12-NH2 [Compound 12],–,100,100,–,100,100,–,–,76,100
–,Ac-Tyr^1-Val^2-Nle^3-Gly^4-His^5-D-Phe^6-Arg^7-Trp^8-Asp^9-Arg^10-Phe^11-Gly^12-NH2 [Compound 13],–,100,100,100,100,100,–,–,100,100
